Results on ten compounds are retold here after patent US9434711B2 (Janssen Pharmaceutica, NV, priority 2007, dated 2016).

In one assay the target is canine TRPM8 (Canis lupus familiaris, UniProt Q1A7N1). Kind of assay: In Vitro Canine TRPM8 Functional Assay (Ca2+ fluorescence, icilin activation). It is filed as cell-based. Particulars: for IC50: HEK293 cells stably expressing canine TRPM8, icilin activation, eight-point dose-response, read-out: IC50; for inhibition at 0.5 µM: compound at 0.5 μM, read-out: % Inh @ 0.5; for inhibition at 0.5 µM / inhibition at 0.2 µM / % Inh @ 0.2 (μM): canine TRPM8, icilin activation; for inhibition at 0.2 µM / % Inh @ 0.2 (μM): compound at 0.2 μM; for inhibition at 0.2 µM: read-out: % Inh @ 0.2. The procedure, abridged: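 HEK293 cells stably expressing canine TRPM8 were loaded with Calcium 3 dye (35 min at 37 °C, then 25 min at room temperature). Compound was added and Ca2+ fluorescence was read for 5 min before icilin at a concentration giving about 80% maximal response. EC50/IC50 came from eight-point dose-response curves, quadruplicate wells.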

Assay [1] has as its system Male Sprague Dawley rats. Kind of assay: Reversal of Icilin-Induced Behaviors in Rats. It is filed as in vivo. Particulars: Rattus norvegicus, po, 1 h, 30 mg/kg p.o., 1 h post-icilin. The protocol:
Male Sprague Dawley rats (225-450 g, Charles River Labs, n=4-6/treatment) were used to evaluate the ability of selected compounds of the formula (I) to reverse icilin-induced “wet-dog” shakes. Icilin was administered in PEG-400 or 10% solutol/H2O, at 1.0 or 3.0 mg/kg, i.p. and spontaneous “wet-dog” shakes (WDS) were counted 10-20 minutes post-icilin. […] Results are presented as a percent inhibition of shakes, which was calculated as [1-(test compound WDS count/vehicle WDS count)]×100.

For assay [2], the system named is Male Sprague Dawley rats. Description: Inhibition of Icilin-Induced "Wet-Dog" Shakes in Rats. It is filed as in vivo, rat. As to conditions: Na salt form; for ED50: Rattus norvegicus, po; for % Inhibition: dose 30 p.o. The method, then:
Male Sprague Dawley rats (220-450 g, Charles River Labs, n=6-9/treatment) were used to evaluate the ability of selected compounds of the formula (I) to block icilin-induced “wet-dog” shakes (WDS). Compounds of the formula (I) were administered in an appropriate vehicle, such as hydroxypropyl-β-cyclodextrin (HPβCD), methocellulose, 10% Solutol, or H2O, or the like, by the appropriate route, i.p. or p.o., 30-120 minutes before icilin. Icilin was administered in PEG-400 or 10% solutol/H2O, at 1.0 or 3.0 mg/kg, i.p. and spontaneous “wet-dog” shakes were counted 10-20 minutes post-icilin. Results are presented as a percent inhibition of shakes, which was calculated as [1-(test compound WDS count/vehicle WDS count)]×100.

Assay [3] relates to Male Sprague Dawley rats. Description: Chronic Constriction Injury (CCI)-Induced Model of Neuropathic Pain, Acetone-Induced Hypersensitivity. It is filed as in vivo, rat. As to conditions: Na salt form; for inhibition in vivo at 30 mg/kg / Percent Inhibition: 30 mg/kg p.o. The text has this: Male Sprague Dawley rats (225-450 g; n=5-8/treatment) were used to evaluate the ability of selected compounds of the formula (I) to reverse CCI-induced cold hypersensitivity. Four loose ligatures of 4-0 chromic gut were surgically placed around the left sciatic nerve under inhalation anesthesia as described by Bennett et al (Bennett G J, Xie Y K. Pain 1988, 33(1): 87-107). Fourteen to 35 days following CCI surgery, subjects were placed in elevated observation chambers containing wire mesh floors and five applications of acetone (0.05 mL/application separated by approximately 5 minutes) were spritzed onto the plantar surface of the paw using a multidose syringe. An abrupt withdrawal or lifting of the paw was considered a positive response. The number of positive responses was recorded for each rat over the five trials. Following baseline withdrawal determinations, compounds of formula (I) are administered in an appropriate vehicle, such as hydroxypropyl-β-cyclodextrin (HP β CD), methylcellulose, Methocel, 10% Solutol, or H2O, or the like, by the appropriate route, i.p. or p.o. […] Results are presented as a percent inhibition of […], which was calculated for each subject as [1−(test compound withdrawals/pre-test withdrawals)]×100 and then averaged by treatment.

Where [4] appears, read: 0.5 h, HPbCD, 30 min pre-icilin.

Sequence of canine TRPM8 (Q1A7N1 1-1104): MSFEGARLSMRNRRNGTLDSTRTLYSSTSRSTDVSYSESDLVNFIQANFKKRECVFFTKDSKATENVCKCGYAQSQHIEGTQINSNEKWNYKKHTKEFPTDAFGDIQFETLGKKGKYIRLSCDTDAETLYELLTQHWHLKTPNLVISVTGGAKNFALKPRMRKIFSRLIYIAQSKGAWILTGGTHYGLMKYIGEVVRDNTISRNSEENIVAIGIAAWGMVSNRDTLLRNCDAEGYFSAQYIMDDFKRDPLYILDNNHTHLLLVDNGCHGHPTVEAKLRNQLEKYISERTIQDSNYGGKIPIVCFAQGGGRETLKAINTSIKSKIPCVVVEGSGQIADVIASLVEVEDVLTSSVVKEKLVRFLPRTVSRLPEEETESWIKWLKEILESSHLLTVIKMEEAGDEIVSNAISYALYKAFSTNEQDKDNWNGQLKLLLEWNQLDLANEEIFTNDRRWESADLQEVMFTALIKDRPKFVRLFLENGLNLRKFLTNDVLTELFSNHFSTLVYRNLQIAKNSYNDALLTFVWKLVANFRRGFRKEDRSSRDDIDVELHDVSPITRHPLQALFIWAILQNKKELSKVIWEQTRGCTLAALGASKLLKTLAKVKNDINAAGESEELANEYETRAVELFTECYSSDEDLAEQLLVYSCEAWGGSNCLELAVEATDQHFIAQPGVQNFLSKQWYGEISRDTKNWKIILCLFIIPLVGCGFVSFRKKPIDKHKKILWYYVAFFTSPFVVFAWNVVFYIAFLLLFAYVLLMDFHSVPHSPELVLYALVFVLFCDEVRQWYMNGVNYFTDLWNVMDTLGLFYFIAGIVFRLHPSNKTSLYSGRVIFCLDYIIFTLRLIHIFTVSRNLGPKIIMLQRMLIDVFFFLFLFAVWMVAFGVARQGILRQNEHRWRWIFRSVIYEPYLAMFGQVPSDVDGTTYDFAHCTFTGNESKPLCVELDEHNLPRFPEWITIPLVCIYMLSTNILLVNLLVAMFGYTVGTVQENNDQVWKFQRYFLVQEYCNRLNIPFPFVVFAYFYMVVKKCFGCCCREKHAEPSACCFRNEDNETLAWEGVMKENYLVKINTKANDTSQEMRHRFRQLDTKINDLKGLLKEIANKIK

On to `Cc1c(N(Cc2ccc(OC(F)(F)F)cc2)S(=O)(=O)c2cccnc2)sc2ccccc12` [Compound 13, N-(3-Methyl-benzo[b]thiophen-2-yl)-N-(4-trifluoromethoxy-benzyl)-pyridine-3-sulfonamide], for which, at canine TRPM8, the IC50 amounted to 3 nM and the inhibition at 0.5 µM was 97%. Moreover, the inhibition in vivo at 30 mg/kg in the assay on Male Sprague Dawley rats [1] came out at 28%.

On to `Cc1c(N(Cc2ccc(F)c(F)c2)S(=O)(=O)c2cn(C)cn2)sc2ccccc12` [Compound 2, N-(3,4-Difluoro-benzyl)-N-(3-methyl-benzo[b]thiophen-2-yl)-1-methyl-1H-imidazole-4-sulfonamide], for which, at canine TRPM8, the IC50 was found to be 16.3 nM and the inhibition at 0.5 µM was 99%. Besides, in the assay with Male Sprague Dawley rats [1], the inhibition in vivo at 30 mg/kg is 18%.

For `CCCCN(c1sc2ccccc2c1Br)S(=O)(=O)c1ccc(C(=O)O)cc1` [Compound 272, N-(3-Bromo-benzo[b]thiophen-2-yl)-N-(butyl)-4-carboxy-benzenesulfonamide], at canine TRPM8, the IC50 is 6.2 nM and the inhibition at 0.2 µM was 97%. For the same compound, the ED50 in the assay on Male Sprague Dawley rats [2] (setting [4]) was determined as 22 mg/kg. In addition, the inhibition in vivo at 30 mg/kg in the assay with Male Sprague Dawley rats [3] (Rattus norvegicus, po, 1 h, HPbCD, pretreatment 1 hr, read-out: Percent Inhibition) was 31%.

In the case of `Cc1c(N(CCC2CC2)S(=O)(=O)c2ccc(C(=O)[O-])cc2)sc2ccccc12.[Na+]` [Compound 400, Sodium, N-(2-Cyclopropylethyl)-N-(3-methylbenzo[b]thiophen-2-yl)-4-carboxy-benzenesulfonamide], on canine TRPM8, the IC50 stood at 5 nM. For the same compound, the “% Inh @ 0.2 (μM)” value at canine TRPM8 is 102%. For the same compound, the “% Inhibition” value in the assay on Male Sprague Dawley rats [2] (HPbCD, 30 min pre-icilin) came out at 84%. The “Percent Inhibition” value with Male Sprague Dawley rats [3] (Water, pretreatment 1 hr) came out at 40%; in the assay with Male Sprague Dawley rats [3] (Water, pretreatment 3 hr) it was 25%.

Regarding `O=C(O)c1ccc(S(=O)(=O)N(CCCCC(F)(F)F)c2sc3ccccc3c2Br)cc1` [Compound 395, N-(3-Bromo-benzo[b]thiophen-2-yl)-N-(5,5,5-trifluoro-pentyl)-4-carboxy-benzenesulfonamide], on canine TRPM8, the IC50 came out at 3 nM and the inhibition at 0.2 µM came out at 101%. The ED50 in the assay with Male Sprague Dawley rats [2] (1 h, Water, 60 min pre-icilin) came out at 7.6 mg/kg. Also, in the assay with Male Sprague Dawley rats [3] (Rattus norvegicus, po, 2 h, Water, pretreatment 2 hr, read-out: Percent Inhibition), the inhibition in vivo at 30 mg/kg came to 23%.

`O=C(O)c1ccc(S(=O)(=O)N(CCC2CC2)c2sc3ccccc3c2Cl)cc1` [Compound 479]: at canine TRPM8, the IC50 was 8 nM and the “% Inh @ 0.2 (μM)” value is on record as 100%. For the same compound, the “% Inhibition” value in the assay on Male Sprague Dawley rats [2] (HPbCD, 60 min pre-icilin) is 77%.

`CC(C)(O)c1c(N(CCC(F)(F)F)S(=O)(=O)c2ccc(C(=O)[O-])cc2)sc2ccccc12.[Na+]` [Compound 505, Sodium, N-(3-(1-Hydroxy-1-methyl-ethyl)-benzo[b]thiophen-2-yl)-N-(3,3,3-trifluoro-propyl)-4-carboxy-benzenesulfonamide]: at canine TRPM8, the IC50 is 24 nM and the “% Inh @ 0.2 (μM)” value was 98%. For the same compound, the “% Inhibition” value with Male Sprague Dawley rats [2] (HPbCD, 60 min pre-icilin) came to 72%. In addition, the “Percent Inhibition” value in the assay on Male Sprague Dawley rats [3] (HPbCD, pretreatment 1 hr) was 11%.

On to `O=C(O)c1ccc(S(=O)(=O)N(CCC(F)(F)F)c2sc3ccccc3c2Br)cc1` [Compound 271, N-(3-Bromo-benzo[b]thiophen-2-yl)-N-(3,3,3-trifluoro-propyl)-4-carboxy-benzenesulfonamide], for which, at canine TRPM8, the inhibition at 0.2 µM stood at 98%. Besides, in the assay on Male Sprague Dawley rats [2] (0.5 h, Water, 30 min pre-icilin), the 50% effective dose (ED50) worked out at 5.7 mg/kg. In addition, the inhibition in vivo at 10 mg/kg with Male Sprague Dawley rats [3] (Rattus norvegicus, po, 1 h, 10 mg/kg p.o., HPbCD, pretreatment 1 hr, read-out: Percent Inhibition) amounted to 24%. Moreover, in the assay with Male Sprague Dawley rats [3] (Rattus norvegicus, po, 1 h, 100 mg/kg p.o., HPbCD, pretreatment 1 hr, read-out: Percent Inhibition), the inhibition in vivo at 100 mg/kg is 56%.

For the compound `O=C(O)c1ccc(S(=O)(=O)N(CC2CC2)c2sc3ccccc3c2Br)cc1` [Compound 273, N-(3-Bromo-benzo[b]thiophen-2-yl)-N-(cyclopropylmethyl)-4-carboxy-benzenesulfonamide], on canine TRPM8, the IC50 turned out to be 18 nM and the inhibition at 0.2 µM was 96%. For the same compound, in the assay on Male Sprague Dawley rats [2] (setting [4]), the ED50 is 53 mg/kg. Moreover, in the assay on Male Sprague Dawley rats [3] (Rattus norvegicus, po, 0.5 h, HPbCD, pretreatment 0.5 hr, read-out: Percent Inhibition), the inhibition in vivo at 30 mg/kg worked out at 49%.

Regarding `O=S(=O)(c1ccc(-c2nnn[nH]2)cc1)N(CCCC(F)(F)F)c1sc2ccccc2c1Br` [Compound 429], at canine TRPM8, the IC50 worked out at 17 nM and the “% Inh @ 0.2 (μM)” value worked out at 93%. Also, the “% Inhibition” value in the assay on Male Sprague Dawley rats [2] (HPbCD, 30 min pre-icilin) came out at 41%. The “% Inhibition” value in the assay with Male Sprague Dawley rats [2] (HPbCD, 60 min pre-icilin) was 36%.

What is called IC50 is the concentration needed to halve the response being measured. The ED50 is the midpoint of the dose-response relation. The term % Inhibition denotes the drop in the measured response relative to a control, in per cent.
